The values below come from paper PMC8699473, “An Easily Expandable Multi-Drug LC-MS Assay for the Simultaneous Quantification of 57 Oral Antitumor Drugs in Human Plasma” (Cancers, 2021).

Details of data set [1]: method as in supplement references [1-55] as printed per drug. The conditions noted are these: minimum steady-state blood plasma concentration after multiple dose administration; ref supplement references [1-55] per drug; cited from earlier work.
Data set [2] in a line: Short-term stability in spiked pooled human plasma (bench-top, 4 °C, 56 °C).

With `CCN1CCN(Cc2ccc(Nc3ncc(F)c(-c4cc(F)c5nc(C)n(C(C)C)c5c4)n3)nc2)CC1` [Abemaciclib], in data set [1], the “cmin” value is given as 181 ng/mL. Moreover, the “Short-time stability (1h, 56°C) Accuracy [%]” value in data set [2] (validation standard 2xLLOV) is 27.9%; in data set [2] (validation standard LLOV), 27.4%; in data set [2] (validation standard MOV), 34.3%; in data set [2] (validation standard ULOV), 34.9%. Moreover, the “Short-time stability (24h, 4°C, without daylight) Accuracy [%]” value in data set [2] (validation standard 2xLLOV) is on record as 102.9%; in data set [2] (validation standard LLOV), 93.7%; in data set [2] (validation standard MOV), 104.5%; in data set [2] (validation standard ULOV) it was 94.4%. Besides, the “Short-time stability (24h, RT, with daylight) Accuracy [%]” value in data set [2] (validation standard 2xLLOV) amounted to 88.7%; in data set [2] (validation standard LLOV) it was 90.1%; in data set [2] (validation standard MOV) it was 90.3%; in data set [2] (validation standard ULOV), 88.4%. Besides, the “Short-time stability (24h, RT, without daylight) Accuracy [%]” value is recorded as 87.4% in data set [2] (validation standard 2xLLOV), 88.2% in data set [2] (validation standard LLOV), 91.7% in data set [2] (validation standard MOV) and 87.5% in data set [2] (validation standard ULOV).

Take `CN(C)C/C=C/C(=O)Nc1cc2c(Nc3ccc(F)c(Cl)c3)ncnc2cc1O[C@H]1CCOC1` [Afatinib]: in data set [1], the “cmin” value was 14.4 ng/mL. The “concentrations in short-term stability investigations” value in data set [2] (24 h, room temperature, with or without light) is given as 64.3–92.5%. Further, the “Short-time stability (1h, 56°C) Accuracy [%]” value in data set [2] (validation standard 2xLLOV) is on record as 30.4%; in data set [2] (validation standard LLOV), 7.2%; in data set [2] (validation standard MOV), 36.2%; in data set [2] (validation standard ULOV), 33.2%. In addition, the “Short-time stability (24h, 4°C, without daylight) Accuracy [%]” value came out at 85.5% in data set [2] (validation standard 2xLLOV), 85.9% in data set [2] (validation standard LLOV), 97.9% in data set [2] (validation standard MOV) and 92.8% in data set [2] (validation standard ULOV). Also, the “Short-time stability (24h, RT, with daylight) Accuracy [%]” value is reported as 80.8% in data set [2] (validation standard 2xLLOV), 64.3% in data set [2] (validation standard LLOV), 89.4% in data set [2] (validation standard MOV) and 77.8% in data set [2] (validation standard ULOV). The “Short-time stability (24h, RT, without daylight) Accuracy [%]” value in data set [2] (validation standard 2xLLOV) came out at 92.5%; in data set [2] (validation standard LLOV), 69.9%; in data set [2] (validation standard MOV) it was 91.4%; in data set [2] (validation standard ULOV) it was 82.7%.

`CNC(=O)c1ccc(N2C(=S)N(c3cnc(C#N)c(C(F)(F)F)c3)C(=O)C23CCC3)cc1F` [Apalutamide]: the “cmin” value in data set [1] is given as 3700 ng/mL. For the same compound, the “Short-time stability (1h, 56°C) Accuracy [%]” value is on record as 46.5% in data set [2] (validation standard 2xLLOV), 37.6% in data set [2] (validation standard LLOV), 41.2% in data set [2] (validation standard MOV) and 29.0% in data set [2] (validation standard ULOV). Also, the “Short-time stability (24h, 4°C, without daylight) Accuracy [%]” value in data set [2] (validation standard 2xLLOV) is on record as 93.0%; in data set [2] (validation standard LLOV), 96.9%; in data set [2] (validation standard MOV) it was 84.3%; in data set [2] (validation standard ULOV) it was 84.2%. Further, the “Short-time stability (24h, RT, with daylight) Accuracy [%]” value in data set [2] (validation standard 2xLLOV) was 76.8%; in data set [2] (validation standard LLOV), 72.0%; in data set [2] (validation standard MOV), 75.7%; in data set [2] (validation standard ULOV), 63.9%. Besides, the “Short-time stability (24h, RT, without daylight) Accuracy [%]” value in data set [2] (validation standard 2xLLOV) came out at 80.8%; in data set [2] (validation standard LLOV), 75.7%; in data set [2] (validation standard MOV), 75.2%; in data set [2] (validation standard ULOV), 63.8%.

With `CNC(=O)c1ccccc1Sc1ccc2c(/C=C/c3ccccn3)n[nH]c2c1` [Axitinib], the “cmin” value in data set [1] is on record as 5 ng/mL. In data set [2] (acceptance limit <85%), the light sensitivity entry is reported as “no losses of concentrations below the acceptance limit”. Also, in data set [2] (validation standard 2xLLOV), the “Short-time stability (1h, 56°C) Accuracy [%]” value is given as 67.7%; the “Short-time stability (24h, 4°C, without daylight) Accuracy [%]” value is recorded as 103.6%; the “Short-time stability (24h, RT, with daylight) Accuracy [%]” value is 107.5%; the “Short-time stability (24h, RT, without daylight) Accuracy [%]” value is reported as 86.7%. Besides, in data set [2] (validation standard LLOV), the “Short-time stability (1h, 56°C) Accuracy [%]” value worked out at 71.1%; the “Short-time stability (24h, 4°C, without daylight) Accuracy [%]” value is 129.6%; the “Short-time stability (24h, RT, with daylight) Accuracy [%]” value is listed as 108.7%; the “Short-time stability (24h, RT, without daylight) Accuracy [%]” value is 106.1%. For the same compound, in data set [2] (validation standard MOV), the “Short-time stability (1h, 56°C) Accuracy [%]” value is on record as 54.6%; the “Short-time stability (24h, 4°C, without daylight) Accuracy [%]” value stood at 100.6%; the “Short-time stability (24h, RT, with daylight) Accuracy [%]” value stood at 116.9%; the “Short-time stability (24h, RT, without daylight) Accuracy [%]” value turned out to be 99.3%. In data set [2] (validation standard ULOV), the “Short-time stability (1h, 56°C) Accuracy [%]” value is given as 46.2%; the “Short-time stability (24h, 4°C, without daylight) Accuracy [%]” value worked out at 97.2%; the “Short-time stability (24h, RT, with daylight) Accuracy [%]” value is listed as 123.3%; the “Short-time stability (24h, RT, without daylight) Accuracy [%]” value was found to be 101.6%.
